The test system of data set [1] is primary T-cells transduced with the HIV Integrase LEDGF/p75 OFF-CAR. The data set can be described thus: Cytokine release by primary T-cells transduced with OFF-switch CAR (Example 5). Conditions: T-cells transduced with Construct 10 and 11; 10 μM, ARH-77-10B5, 24 hour. Type of data set: cell-based, human. As to the method: Primary T-cell transduction and cytokine release: Peripheral blood mononuclear cells (PBMCs) from the fresh blood of two healthy human donors were isolated by density gradient centrifugation in Accuspin tubes (Sigma) containing 15 mL of Histopaque-1077 (Sigma) and following manufacturer's instructions. Cells were resuspended at 1×10^6 cells/mL in TEXMacs media (Miltenyi Biotec) containing 100 units/mL of IL-2 (Sigma) and TransAct beads (Miltenyi Biotec) and incubated for 48 hours at 37° C. with 5% CO2.
T-cells from the two donors were transduced with the lentiviral vectors encoding for CONSTRUCT 10 and CONSTRUCT 11. Transduction reactions were prepared to achieve an MOI of 5. T-cells were cultured in TEXMacs media (Miltentyi Biotec) with 100 units/mL of IL-2, fresh media was added every 3 days. ARH-77-10B5 cells were cultured as described in Example 1. BI224436 compound at a stock concentration of 100 mM in 100% DMSO was diluted in Jurkat media to achieve a stock concentration of 100 μM. Each T-cell population was incubated at a final concentration of 10 μM or 0 μM (media alone) BI224436 in Jurkat media for 1 hour at 37° C. with 5% CO2. […] Supernatants were analysed for cytokine levels using MSD V-plex Proinflammatory Panel 1 Human Kit (MSD, K15049D-2) and MSD Sector Imager (MSD).

Another data set relates to ARH-77-10B5 cells. The data set can be described thus: xCelligence cytotoxicity assay. Format: cell-based. Conditions: T-cells transduced with Construct 10; 10 μM BI224436. As for the experimental part:
Transduction of primary T-cells: Method described in Example 5
xCelligence cytotoxicity assay ARH-77-10B5 cells were as described in Example 1. BI224436 compound at a stock concentration of 100 mM in 100% DMSO was diluted in Jurkat media to achieve a stock concentration of 100 μM. xCelligence E-plates (ACEA, 06472460001) were coated with anti-CD40 tethering agent by following manufacturer's instructions for B-cell Killing (anti-CD40) Assay kit (ACEA, 8100004). Plates were inserted into the xCelligence station (ACEA) (37° C., 5% CO2) and allowed to equilibrate to 37° C. for 1 hour prior to taking background measurement. ARH-77-10B5 cells or Jurkat media were added to the plates (1×10^4 cells per well) and cultured for 20 h. Each T-cell population was incubated at a final concentration of 10 μM or 0 μM BI224436 in Jurkat media for 1 hour at 37° C. with 5% CO2. T-cells were added to the plates (1×10^4 cells per well, 1:1 effector:target ratio) and incubated in the xCelligence station for 24 hours. Data analysis was carried out using xCELLigence Immunotherapy Software (ACEA). The cell index for samples was normalized to the point of T-cell addition, then the normalized cell index for T-cells was divided by the normalized cell index of target cells alone to give the % viable cells at a given timepoint.

A further data set has as its system K562 BCMA cells. The data set can be described thus: Flow cytometry cytotoxicity assay, BCMA-positive target cells. Format: cell-based. As to conditions: for Effect of BI224436 on cytotoxicity: 10 μM BI224436. As to the method:
(§1) Isolation and transduction of CD4+ and CD8+ T-cells: Peripheral blood mononuclear cells (PBMCs) from the fresh blood of one healthy human donor was isolated by density gradient centrifugation in Accuspin tubes (Sigma) containing 15 mL of Histopaque-1077 (Sigma) and following manufacturer's instructions. CD4+ and CD8+ T cells were isolated using CD4 and CD8 microbeads (Miltenyi Biotec) and the AutoMACS Pro-separator (Miltenyi Biotec). Cells were resuspended at 1×10^6 cells/mL in TEXMacs media (Miltenyi Biotec) containing 100 units/mL of IL-7 (Sigma), 100 units/mL of IL-15 (Sigma) and TransAct beads (Miltenyi Biotec) and incubated for 48 hours at 37° C. with 5% CO2.
T-cells were transduced with lentiviral vectors encoding for CONSTRUCT 14 or CONSTRUCT 10. Transduced T-cells and untransduced (UT) T-cells were cultured in TEXMacs media (Miltenyi Biotec) with 100 units/mL of IL-7 (Sigma) and IL-15 (Sigma), and fresh media was added every 3 days. […] 1×10^5 of each T-cell population was stained with AlexaFluor 647 conjugated BCMA-Fc (generated in-house) to label theanti-BCMA scFv on the CARs. Measurements were made using a Cytoflex S (Beckman Coulter) and data analysed using FlowJo (FlowJo).
K562 BCMA cells (BCMA positive) were cultured in Jurkat media plus 0.8 mg/mL G418 (Gibco) and K562 cells (BCMA negative) were cultured in Jurkat media. Both cell lines were cultured at 37° C. with 5% CO2. BI224436 compound at a stock concentration of 100 mM in 100% DMSO (Sigma) was diluted in Jurkat media to achieve a stock concentration of 100 μM. K562 cells were stained with Cell Trace Far Red (0.5 μM, ThermoFisher) and K562 BCMA cells were stained with Cell Trace Violet (2.5 μM, ThermoFisher). […] 50 μL of each well was analysed on a Cytoflex S (Beckman Coulter) and data was analysed using FlowJo (FlowJo). The percentage of surviving K562 and K562 BCMA cells was calculated by dividing the number of K562 and K562 BCMA cells in each condition by the number of K562 and K562 BCMA cells found following co-culture with UT T-cells in 0 μM BI224436.

Data set [2] concerns primary T-cells transduced with the HIV Integrase LEDGF/p75 OFF-switch CAR. The data set is described as follows: Cytokine release with titration of BI224436, primary T-cells transduced with Construct 13 (Example 6). Format: cell-based, human. As to the method: Lentiviral vector production and transduction of primary T-cells: Method for lentiviral production is described in Example 4 and method for primary T-cell transduction is described in Example 5.
Cytokine release: ARH-77-10B5 cells were cultured as described in Example 1. BI224436 compound at a stock concentration of 100 mM in 100% DMSO was diluted in Jurkat media to achieve a stock concentration of 100 μM. Each T-cell population was incubated at a final concentration of 10 μM, 3.3 μM, 1.1 μM, 0.37 μM, 0.12 μM, 0.04 μM, 0.013 μM, 0.004 μM, 0.001 μM or 0 μM (media alone) BI224436 in Jurkat media for 1 hour at 37° C. with 5% CO2. T-cells were then co-cultured (5×10^4 cells per well, 1:1 effector:target ratio) with ARH-77-10B5 cells (BCMA positive cells) for 24 hours in Jurkat media at 37° C. with 5% CO2. Cells were pelleted (1200 rpm, 5 min) and supernatants were collected. Supernatants were analysed for cytokine levels using MSD V-plex Proinflammatory Panel 1 Human Kit (MSD, K15049D-2) and MSD Sector Imager (MSD).

The nature of data set [3]: Plasma concentration of BI224436 in human subjects (clinical trial NCT01276990). Conditions: plasma 24 hours after 200 mg oral doses; IC50 is lower. Format: in vivo.
Data set [4] deals with NFAT promoter in Jurkat cells. The data set is described as follows: NFAT-luciferase assay in Jurkat cells transfected with CAR constructs, co-cultured with ARH-77-10B5 cells. Type of data set: cell-based. As to conditions: 3 μM BI224436, 48 hours. As for the experimental part:
NFAT-luc2 Jurkat cells (Promega) were cultured in Jurkat media: RPMI medium 1640 (1×) without L-glutamine with phenol red (Gibco), 10% (v/v) Fetal Bovine Serum (FBS) Heat-Inactivated (Gibco), 1% (v/v) Minimum essential medium non-essential amino acids (MEM NEAA) (ThermoFisher), 1% (v/v) Sodium Pyruvate (Sigma), 1% (v/v) L-Glutamine (Gibco). ARH-77-10B5 cells were cultured in Jurkat media plus 1 mg/mL G418 (Thermo, 10131035). Cells were incubated at 37° C. with 5% CO2 for 48 hours. 20 μg of plasmid DNA from each construct was mixed with 8×10^6 NFAT-luc2 Jurkat cells and cells were transfected using the 4D-Nucleofector (Lonza) with cell Line SE Nucleofector kit (Lonza) by following manufacturer instructions with program CL-120. BI224436 compound (Chemexpress HY-18595) at a stock concentration of 100 mM in 100% DMSO (Sigma, D2650) was diluted in Jurkat media to achieve a stock concentration of 100 μM. Using the 100 μM BI224436 stock in Jurkat media, NFAT-luc2 Jurkat cells were incubated at a final compound concentration of 3 μM for 48 hours at 37° C. with 5% CO2. NFAT-luc2 Jurkat cells were then co-cultured (1×10^5 cells per well, 1:1 effector:target ratio) with ARH-77-10B5 cells (BCMA positive cells) for 6.5 hours. NFAT-luciferase luminescence was measured by using the Bio-Glo Luciferase Assay System (Promega G7940) (following manufacturer's instructions) and an EnSpire Multimode Plate Reader (Perkin Elmer).

For data set [5], the system named is K562 cells (BCMA negative). The data set can be described thus: Flow cytometry cytotoxicity assay, BCMA-negative target cells. Type of data set: cell-based. As to conditions: transduced primary T-cells, K562 WT, 1:1 or 4:1 effector:target, 48 hours. As for the experimental part:
as §1
T-cells were transduced with lentiviral vectors encoding for CONSTRUCT 14 or CONSTRUCT 10. […] Measurements were made using a Cytoflex S (Beckman Coulter) and data analysed using FlowJo (FlowJo).
K562 BCMA cells (BCMA positive) were cultured in Jurkat media plus 0.8 mg/mL G418 (Gibco) and K562 cells (BCMA negative) were cultured in Jurkat media. […] 50 μL of each well was analysed on a Cytoflex S (Beckman Coulter) and data was analysed using FlowJo (FlowJo). The percentage of surviving K562 and K562 BCMA cells was calculated by dividing the number of K562 and K562 BCMA cells in each condition by the number of K562 and K562 BCMA cells found following co-culture with UT T-cells in 0 μM BI224436.

`Cc1nc2ccccc2c(-c2ccc3c4c(ccnc24)CCO3)c1[C@H](OC(C)(C)C)C(=O)O` [BI224436, 3-Quinolineacetic acid, 4-(2,3-dihydropyrano[4,3,2-de]quinolin-7-yl)-α-(1,1-dimethylethoxy)-2-methyl-,(αS,4R)-]: the “Effect of compound on cytokine release” value in data set [1] is listed as “attenuated”. The “Effect of BI224436 on cytotoxic response” value in the data set on ARH-77-10B5 cells is listed as “reduced”. The entries for the “Effect of BI224436 on cytotoxicity” value in the data set with K562 BCMA cells (T-cells transduced with OFF-switch CAR (Construct 10)) and with K562 BCMA cells (T-cells transduced with conventional CAR (Construct 14)) were “effectively attenuates” and “does not affect”, respectively. The IC50 in data set [2] (Homo sapiens, T-cell, primary T-cells transduced with Construct 13, stimulated with ARH-77-10B5, 24 hours, read-out: IC50 concentration for cytokine release (TNF-alpha, IL-2, IFN-gamma)) came to 100 nM. Also, in data set [2] (primary T-cells transduced with Construct 13, 0.001-10 μM titration), the “Effect of BI224436 concentration on level of TNF-alpha, IL-2 and IFN-gamma release” value is on record as “tunes the level”. The “IC50 concentration relative to plasma concentrations in human subjects” value in data set [3] came out at 10 fold. Moreover, the “Effect of BI224436 on NFAT activation” value was “preserved” in data set [4] (Jurkat cells transfected with Construct 6), “preserved” in data set [4] (Jurkat cells transfected with Construct 7) and “does not reduce the level of activation” in data set [4] (Jurkat cells transfected with Constructs 1 to 4).

B1: Construct 14: conventional single chain CAR (SEQ ID NO: 52) that uses components from CONSTRUCT 10 (protein)
chain: MALPVTALLLPLALLLHAARPQVQLVQSGAEVKKPGSSVKVSCKGSGYTFTNYWMHWVRQAPGQGLEWIGATYRGHSDTYYNQKFKGRATLTADTSTSTAYMELSSLRSEDTAVYYCTRGAIYDGYDVLDNWGQGTLVTVSSGGGGSGGGGSGGGGSGGGGSDIQMTQSPSSLSASVGDRVTITCSASQDISNYLNWYQQKPGKAPKLLIYYTSNLHSGVPSRFSGSGSGTDFTLTISSLQPEDFATYYCQQYRKLPWTFGQGTKLEIKRFVPVFLPAKPTTTPAPRPPTPAPTIASQPLSLRPEACRPAAGGAVHTRGLDFACDIYIWAPLAGTCGVLLLSLVITLYCNHRNKRGRKKLLYIFKQPFMRPVQTTQEEDGCSCRFPEEEEGGCELRVKFSRSADAPAYQQGQNQLYNELNLGRREEYDVLDKRRGRDPEMGGKPRRKNPQEGLYNELQKDKMAEAYSEIGMKGERRRGKGHDGLYQGLSTATKDTYDALHMQALPPR
modifications: Construct 14 amino acid sequence
On to B1, for which the “Killing of BCMA-positive cells” value in the data set with K562 BCMA cells (transduced primary T-cells, K562 BCMA, 1:1 or 4:1 effector:target, 48 hours) is on record as “kill BCMA-positive cells”. In data set [5], the “Killing of BCMA-negative cells” value is listed as “not BCMA-negative cells”.

The values are drawn from patent publication US20220323494A1, “Novel Control Switch” (GlaxoSmithKline Intellectual Property Development Limited, priority 2018, published 2022).
